From paper PMC10847213 (Clinical Pharmacokinetics, 2023)
Entries after “also recorded” stand apart in the source; their conditions may differ. Read-outs that look alike come from different tables or passages of the source.

Assays:
[1] = tested on: UGT; test: Effect of multiple-dose lorlatinib on the pharmacokinetics of acetaminophen; assay type: in vivo, human
[2] = tested on: CYP3A4/5; conditions: cited from earlier work
[3] = tested on: CYP3A4/5; conditions: cited from earlier work; remark: listed apart in the source
[4] = tested on: CYP2D6; conditions: in vitro; cited from earlier work
[5] = tested on: bone marrow of rats; conditions: cited from earlier work
[6] = tested on: plasma proteins; conditions: cited from earlier work
[7] = after oral administration; cited from earlier work
[8] = tested on: CYP2C9; conditions: in vitro; cited from earlier work
[9] = tested on: CYP3A4/5; conditions: lorlatinib with itraconazole; cited from earlier work
[10] = target: P-glycoprotein (P-gp) (Homo sapiens, UniProt P08183); test: Effect of multiple-dose lorlatinib on the pharmacokinetics of fexofenadine; assay type: in vivo; conditions: lorlatinib 100 mg QD at steady state; probe fexofenadine
[11] = tested on: CYP3A4/5; conditions: lorlatinib with modafinil; cited from earlier work
[12] = tested on: P-glycoprotein (P-gp); conditions: MDCK II-MDR1 cells, substrate digoxin; cited from earlier work
[13] = tested on: CYP2C9; test: Effect of multiple-dose lorlatinib on the pharmacokinetics of tolbutamide; assay type: in vivo, human; conditions: lorlatinib 100 mg QD at steady state; probe tolbutamide
[14] = tested on: human lymphoblastoid TK6 cells; conditions: cited from earlier work
[15] = tested on: CYP2C19; conditions: in vitro; cited from earlier work
[16] = tested on: CYP2C8; conditions: in vitro; cited from earlier work
[17] = tested on: CYP1A2; conditions: in vitro; cited from earlier work
[18] = tested on: bacterial assay; conditions: in vitro bacterial assay; cited from earlier work
[19] = tested on: CYP2B6; conditions: in vitro; cited from earlier work
[20] = tested on: human pregnane X receptor (PXR); conditions: cited from earlier work
[21] = tested on: CYP3A4/5; conditions: cited from earlier work; remark: listed apart in the source
[22] = tested on: CYP2B6; test: Effect of multiple-dose lorlatinib on the pharmacokinetics of bupropion; assay type: in vivo, human
[23] = acetaminophen with lorlatinib 100 mg QD vs acetaminophen alone
[24] = single oral 2-mg dose of midazolam with lorlatinib 150 mg QD

Chain of P-glycoprotein (P-gp) (Homo sapiens, UniProt P08183) (P08183 whole entry): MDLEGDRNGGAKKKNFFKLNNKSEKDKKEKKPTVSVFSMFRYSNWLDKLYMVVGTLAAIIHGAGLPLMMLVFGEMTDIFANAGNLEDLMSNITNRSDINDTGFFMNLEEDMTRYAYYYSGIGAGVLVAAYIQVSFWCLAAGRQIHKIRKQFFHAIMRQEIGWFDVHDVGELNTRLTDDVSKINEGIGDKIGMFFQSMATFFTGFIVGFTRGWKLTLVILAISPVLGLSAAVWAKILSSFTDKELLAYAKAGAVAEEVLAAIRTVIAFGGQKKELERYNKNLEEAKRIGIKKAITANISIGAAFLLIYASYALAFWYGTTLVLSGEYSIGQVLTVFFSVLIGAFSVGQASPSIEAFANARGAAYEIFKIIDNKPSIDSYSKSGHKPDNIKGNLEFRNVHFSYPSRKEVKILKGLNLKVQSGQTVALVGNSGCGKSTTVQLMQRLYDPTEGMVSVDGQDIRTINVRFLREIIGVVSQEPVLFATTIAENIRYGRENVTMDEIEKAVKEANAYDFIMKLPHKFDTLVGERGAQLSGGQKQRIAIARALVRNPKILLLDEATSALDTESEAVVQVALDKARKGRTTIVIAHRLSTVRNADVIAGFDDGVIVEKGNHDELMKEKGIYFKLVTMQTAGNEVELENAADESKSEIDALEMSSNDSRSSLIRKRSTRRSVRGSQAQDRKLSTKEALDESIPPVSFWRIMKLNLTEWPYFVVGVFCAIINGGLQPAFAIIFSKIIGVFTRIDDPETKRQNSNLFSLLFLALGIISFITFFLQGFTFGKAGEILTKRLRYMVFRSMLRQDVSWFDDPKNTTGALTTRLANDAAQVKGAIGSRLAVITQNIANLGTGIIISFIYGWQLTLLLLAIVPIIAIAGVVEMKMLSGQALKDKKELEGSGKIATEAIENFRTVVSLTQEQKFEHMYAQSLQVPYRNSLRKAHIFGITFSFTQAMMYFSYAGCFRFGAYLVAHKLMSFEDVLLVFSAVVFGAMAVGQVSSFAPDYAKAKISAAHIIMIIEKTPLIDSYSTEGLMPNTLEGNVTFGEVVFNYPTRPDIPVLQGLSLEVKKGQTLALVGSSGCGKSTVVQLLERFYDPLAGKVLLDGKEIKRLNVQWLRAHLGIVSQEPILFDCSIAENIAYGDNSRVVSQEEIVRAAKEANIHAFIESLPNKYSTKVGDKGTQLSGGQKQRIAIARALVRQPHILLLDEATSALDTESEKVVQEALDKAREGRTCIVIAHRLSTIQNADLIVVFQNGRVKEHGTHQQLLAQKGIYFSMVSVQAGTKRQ

Q: Which “Decrease in AUC∞” value [1, 23] does the source give for `CC(=O)Nc1ccc(O)cc1` [Acetaminophen, acetaminophen] here?
A: 45%

Q: And the “Decrease in Cmax” value [1, 23]?
A: 28%

Q: Which results are given for `Cc1ncc2n1-c1ccc(Cl)cc1C(c1ccccc1F)=NC2` [midazolam]?
A: Decrease in AUC∞ [2, 24]: 64%; Decrease in Cmax [2, 24]: 50%

Q: With `C[C@H]1Oc2cc(cnc2N)-c2c(nn(C)c2C#N)CN(C)C(=O)c2ccc(F)cc21` [Lorlatinib, (10R)-7-amino-12-fluoro-2,10,16-trimethyl-15-oxo-10,15,16,17-tetrahydro-2H-8,4-(metheno)pyrazolo[4,3-h][2,5,11]-benzoxadiazacyclotetradecine-3-carbonitrile] as the molecule, how does the “Effect on CYP3A4/5” value [3] read?
A: time-dependent inhibitor and inducer

Q: What about the “Inhibition of CYP2D6” value [4] of the same molecule?
A: do not inhibit

Q: And the Aneugenicity in vivo [5]?
A: aneugenic

Q: And the “Binding to plasma proteins” value [6]?
A: 66%

Q: What about the Bioavailability [7] of the same molecule?
A: 81%

Q: And the “Inhibition of CYP2C9” value [8]?
A: do not inhibit

Q: And the “Increase in AUC∞” value [9]?
A: 42%

Q: What about the “Increase in Cmax” value [9] of the same molecule?
A: 24%

Q: And the “Inducer classification, P-gp” value [10]?
A: moderate (≥ 50% to < 80%)

Q: What about the “Inducer classification, CYP3A4/5” value ([2]; after multiple dosing, probe midazolam) of the same molecule?
A: moderate (≥ 50% to < 80%)

Q: What about the “Reduction in AUC∞” value [11] of the same molecule?
A: 23%

Q: What about the “Reduction in Cmax” value [11] of the same molecule?
A: 22%

Q: And the “Inhibition of P-gp efflux” value [12]?
A: inhibit

Q: What about the “Inducer classification, CYP2C9” value [13] of the same molecule?
A: weak (≥ 20% to < 50%)

Q: What about the Aneugenicity in vitro [14] of the same molecule?
A: aneugenic

Q: What about the “Inhibition of CYP2C19” value [15] of the same molecule?
A: do not inhibit

Q: What about the “Inhibition of CYP2C8” value [16] of the same molecule?
A: do not inhibit

Q: What about the “Inhibition of CYP1A2” value [17] of the same molecule?
A: do not inhibit

Q: What about the Mutagenicity [18] of the same molecule?
A: not mutagenic

Q: What about the “Inhibition of CYP2B6” value [19] of the same molecule?
A: do not inhibit

Q: And the PXR activation [20]?
A: activate PXR

Q: And the “Inducer classification, UGT” value ([1]; lorlatinib 100 mg QD at steady state, probe acetaminophen)?
A: weak (≥ 20% to < 50%)

Q: What about the “Transaminase / liver enzyme levels” value ([21]; coadministration of lorlatinib with rifampin) of the same molecule?
A: elevated liver enzyme levels; also recorded: rapid elevations in transaminase values

Q: What about the “Reduction in Cmax” value ([21]; lorlatinib with rifampin) of the same molecule?
A: 76%

Q: And the “Reduction in mean AUC∞” value ([21]; lorlatinib with rifampin)?
A: 85%

Q: And the “Inducer classification, CYP2B6” value ([22]; lorlatinib 100 mg QD at steady state, probe bupropion)?
A: weak (≥ 20% to < 50%)

Q: With `CC(NC(C)(C)C)C(=O)c1cccc(Cl)c1` (stereo not shown) [Bupropion, bupropion] as the molecule, how does the “Decrease in Cmax” value ([22]; bupropion with lorlatinib 100 mg QD vs bupropion alone) read?
A: 27%
